Each structure is given as a SMILES string. Where two headings read alike, the source gives them in different places.

These results are taken from patent US12239643B2, “Therapeutic agent for inflammatory diseases, autoimmune diseases, fibrotic diseases, and cancer diseases” (MEIJI SEIKA PHARMA CO., LTD., priority 2018, dated 2025).

One data set relates to TGF-β. In words: TGF-β inhibitory activity using THP1 cells differentiated into macrophages. It is filed as cell-based. Particulars: Homo sapiens, THP-1; THP1 cells differentiated into macrophages, lipopolysaccharide 1 μg/mL, about 7 hours; read-out: TFG-β Inhibitory Activity (Test Example 6). On the procedure: The TGF-β inhibitory activity was measured using THP1 cells as follows. First, THP1 cells were seeded on a 24-well culture plate at […], and culture was carried out overnight at 37° C. and 5% CO2 in RPMI-1640 medium (containing 10% fetal bovine serum, penicillin, and streptomycin) supplemented with 100 nM phorbol myristate acetate. After that, the cells were differentiated into macrophages by changing to RPMI-1640 medium without phorbol myristate acetate, followed by further culture at 37° C. under 5% CO2 overnight. Next, the THP1 culture plate was washed once with PBS(−) 1 mL/well, and then the test compound and lipopolysaccharide (final concentration 1 μg/mL) were added, followed by culture at 37° C. under 5% CO2 for about 7 hours. After culturing, the entire amount of the medium was collected, and the amount of TGF-β in the centrifuged supernatant was quantified by the sandwich ELISA method. The non-addition of lipopolysaccharide was used as a blank, and the control was obtained by adding only dimethyl sulfoxide instead of the test compound, and the inhibition rate of the test compound against the control was calculated by the following formula. Inhibition Rate (%)={1−(Value at Addition of Each Test Compound−Blank Value)/(Control Value−Blank Value)}×100
In addition, the TGF-β inhibitory activity (concentration for the inhibition rate of 50%) of the test compound was calculated from the inhibition curves based on the inhibition rate for various concentrations of the test compound.
The measurement results obtained by measuring the TFG-β inhibitory activity (50% inhibitory concentration) of the test compounds by the above method were evaluated in accordance with the following evaluated basis; A: less than 1 μM, and B: 1 μM or more.

In the next data set the test system is PDE4. The data set can be described thus: Evaluation of PDE4 inhibitory activity, scintillation proximity assay. It is filed as biochemical. Particulars: for PDE4 inhibitory activity: summary in words of Tables 57 to 69. In a few lines:
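SPA with [2,8-3H]-cAMP and diluted PDE4 enzyme preparation in 50 mM Tris-HCl pH 7.4, 8.3 mM MgCl2, 1.7 mM EGTA, 3 mg/mL BSA, 120 min at room temperature. Product captured on ZnSO4-containing YSi-SPA beads, scintillation counted; IC50 from inhibition curves vs DMSO control and no-enzyme blank.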

For data set [1], the system named is oxazolone-induced auricle edema, BALB/c mice. In words: Hapten repeated application mouse chronic dermatitis model (oral, topical). It is filed as in vivo. Particulars: oral, 0.3 to 10 mg/kg twice a day for 10 days. On the procedure: Evaluation was carried out using female BALB/c mice (7 to 8 weeks of age). First, the hair of the abdomen of the mice was treated with a hair clipper, and then 150 μL of a 3% oxazolone acetone/ethanol solution was applied to the abdomen as a hapten. One week later, 20 μL/ear of 1% oxazolone acetone/ethanol solution was applied to the outer surface of the auricle of both ears of the mice 3 times/week to induce inflammation. A 1% oxazolone-acetone/ethanol solution was applied every other day for 10 days from 1 week after the start of inflammation induction. In addition, for 10 days from 1 week after the start of inflammation induction, the test compound suspended in 0.5% w/v methylcellulose (0.5% MC) was orally administered at 0.3 to 10 mg/kg twice a day (10 μL/g), or 20 μL of a 0.3 to 3% test compound dissolved in an acetone/ethanol solution was applied once or twice a day (topical administration). A 1% oxazolone was not applied to the blank. The control was one in which 1% oxazolone was applied and only 0.5% MC was orally administered without using the test compound, or only an acetone/ethanol solution was applied.
After administration for 10 days, auricle thickness was measured using a dial thickness gauge, and the changes in auricular thickness before the treatment (immediately before the start of administration of the test compound) and after the treatment (after the administration of the test compound for 10 days) were used to calculate the edema suppression rate by the following formula. Edema Suppression Rate (%)={1−(Auricle Thickness After Treatment by Test Compound−Auricle Thickness Before Treatment by Test Compound)/(Auricle Thickness After Treatment of Control−Auricle Thickness Before Treatment of Control)}×100
The measurement results obtained by measuring the edema suppression rate at the time of oral administration of each test compound by the above method were evaluated in accordance with the following evaluated basis; A: 70% or more, B: 40% or more and less than 70%, and C: less than 40%. In addition, the measurement results obtained by measuring the edema suppression rate at the time of topical administration of each test compound were evaluated in accordance with the following evaluated basis; A: 100% or more, B: 70% or more and less than 100%, and C: less than 70%.

A short description of data set [2]: Hepatic metabolic stability (rat liver microsome method). Format: in vitro ADME. To be noted: rat liver microsomes 0.5 mg/mL, test substance 1 μM, NADPH 1 mM, 37° C., 30 minutes. In a few lines:
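Rat liver microsomes (0.5 mg/mL final) with test compound (1 μM final) in 100 mM potassium phosphate pH 7.4, 37° C; reaction started with NADPH (1 mM final) after 5 min preincubation. Acetonitrile stop at 0 and 30 min, LC-MS quantitation; % remaining = 30 min/0 min ×100, graded A ≥75%, B 60–<75%, C 45–<60%, D <45%.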

Where [3] appears, read: finer grading of compounds rated A in Evaluation 1, read-out: PDE4 Inhibitory Activity (Evaluation 2).
Where [4] appears, read: scintillation proximity assay, class symbols of Evaluation 1, read-out: PDE4 Inhibitory Activity (concentration for the inhibition rate of 50%, IC50), Evaluation 1.
[5] abbreviates: scintillation proximity assay, read-out: PDE4 Inhibitory Activity (Evaluation 1; concentration for the inhibition rate of 50%).

Regarding `FC(F)(F)c1ccc(-c2nccs2)c2oc(N3CC4CC(C3)N4)nc12` [Example 32, 2-(3,6-Diazabicyclo[3.1.1]heptan-3-yl)-7-(thiazol-2-yl)-4-(trifluoromethyl)benzo[d]oxazole], the results for the IC50 in the data set on TGF-β, in the data set with PDE4 (setting [3]) and in the data set on PDE4 (setting [4]) were < 1000 nM, 1 to 11 nM and < 100 nM, respectively. Further, the PDE4 inhibitory activity entry in the data set on PDE4 is reported as “particularly excellent”.
Regarding `CC(=O)c1cc(-c2nccs2)c2oc(N3CC4CC(C3)N4)nc2c1OC(F)(F)F` [Example 212, 1-(2-(3,6-Diazabicyclo[3.1.1]heptan-3-yl)-7-(thiazol-2-yl)-4-(trifluoromethoxy)benzo[d]oxazol-5-yl)ethan-1-one], the “Mouse Chronic Dermatitis Model (Test Example 8), Oral: edema suppression rate” value (“Mouse Chronic Dermatitis Model” for short) in data set [1] was “B (B: 40% or more and less than 70%)”. The IC50 in the data set with PDE4 (setting [3]) was ≤ 1 nM; with PDE4 (setting [5]) it was < 100 nM. For the same compound, the PDE4 inhibitory activity entry in the data set with PDE4 is reported as “particularly excellent”.
Take `CC(O)(c1ccc(-c2nccs2)c2oc(N3CC4CC(C3)N4)nc12)C(F)F` (centres unmarked) [Example 296, 2-(2-(3,6-Diazabicyclo[3.1.1]heptan-3-yl)-7-(thiazol-2-yl)benzo[d]oxazol-4-yl)-1,1-difluoropropan-2-ol]: the “Mouse Chronic Dermatitis Model” value in data set [1] is reported as “A (A: 70% or more)”. Moreover, the figures for the IC50 in the data set on PDE4 (setting [3]) and in the data set with PDE4 (setting [5]) were 1 to 11 nM and < 100 nM, respectively. Moreover, the PDE4 inhibitory activity entry in the data set with PDE4 is “particularly excellent”.
Turning to `COc1ccc(-c2nccs2)c2oc(N3CC4CCC(C3)N4)nc12` [Example 75, 2-(3,8-Diazabicyclo[3.2.1]octan-3-yl)-4-methoxy-7-(thiazol-2-yl)benzo[d]oxazole], the IC50 with TGF-β was < 1000 nM; in the data set on PDE4 (setting [3]) it was 1 to 11 nM; in the data set with PDE4 (setting [4]) it was < 100 nM. In addition, the PDE4 inhibitory activity result with PDE4 is given as “particularly excellent”.
`FC(F)(F)Oc1ccc(-c2nccs2)c2oc(N3CC4CCCC(C3)N4)nc12` [Example 30, 2-(3,9-Diazabicyclo[3.3.1]nonan-3-yl)-7-(thiazol-2-yl)-4-(trifluoromethoxy)benzo[d]oxazole]: the IC50 in the data set on TGF-β was < 1000 nM; in the data set on PDE4 (setting [3]) it was ≤ 1 nM; in the data set with PDE4 (setting [4]) it was < 100 nM. Besides, in the data set with PDE4, the PDE4 inhibitory activity result is on record as “particularly excellent”.
The matching figures for `CC(C)(O)c1cc(-c2nccs2)c2oc(N3CC4CCC(C3)N4)nc2c1C(F)(F)F` [Example 177, 2-(2-(3,8-Diazabicyclo[3.2.1]octan-3-yl)-7-(thiazol-2-yl)-4-(trifluoromethyl)benzo[d]oxazol-5-yl)propan-2-ol]: < 1000 nM, 1 to 11 nM, < 100 nM and “particularly excellent”.
For the compound `OC(c1ccc(-c2nccs2)c2oc(N3CC4CC(C3)N4)nc12)C(F)(F)F` (centres unmarked) [Example 120, 1-(2-(3,6-Diazabicyclo[3.1.1]heptan-3-yl)-7-(thiazol-2-yl)benzo[d]oxazol-4-yl)-2,2,2-trifluoroethan-1-ol], the IC50 is < 1000 nM with TGF-β, 1 to 11 nM in the data set on PDE4 (setting [3]) and < 100 nM in the data set on PDE4 (setting [4]). Moreover, the “Mouse Chronic Dermatitis Model” value in data set [1] is “B (B: 40% or more and less than 70%)”. Further, the PDE4 inhibitory activity entry with PDE4 is “particularly excellent”.
For the compound `FC(F)(F)Oc1c(Cl)cc(-c2nccs2)c2oc(N3CC4COCC(C3)N4)nc12` [Example 4, 7-(5-Chloro-7-(thiazol-2-yl)-4-(trifluoromethoxy)benzo[d]oxazol-2-yl)-3-oxa-7,9-diazabicyclo[3.3.1]nonane], the IC50 with TGF-β is < 1000 nM; in the data set with PDE4 (setting [3]), 1 to 11 nM; in the data set on PDE4 (setting [4]) it was < 100 nM. Further, the PDE4 inhibitory activity result with PDE4 is recorded as “particularly excellent”.
On to `CC(O)c1cc(-c2nccs2)c2oc(N3CC4CC(C3)N4)nc2c1OC(F)(F)F` (centres unmarked) [Example 203, 1-(2-(3,6-Diazabicyclo[3.1.1]heptan-3-yl)-7-(thiazol-2-yl)-4-(trifluoromethoxy)benzo[d]oxazol-5-yl)ethan-1-ol], for which the IC50 with TGF-β is < 1000 nM; with PDE4 (setting [3]), 1 to 11 nM; in the data set with PDE4 (setting [5]), < 100 nM. Moreover, the “Mouse Chronic Dermatitis Model” value in data set [1] is “B (B: 40% or more and less than 70%)”. Besides, in the data set on PDE4, the PDE4 inhibitory activity result is reported as “particularly excellent”.
For the compound `FC(F)(F)Oc1c(Cl)cc(-c2nccs2)c2oc(N3CC4CC(C3)N4)nc12` [Example 3, 2-(3,6-Diazabicyclo[3.1.1]heptan-3-yl)-5-chloro-7-(thiazol-2-yl)-4-(trifluoromethoxy)benzo[d]oxazole], the IC50 was < 1000 nM with TGF-β, ≤ 1 nM with PDE4 (setting [3]) and < 100 nM in the data set on PDE4 (setting [4]). Also, in data set [2], the “Residual ratio (% remaining for 30-minute reaction)” value is “B (B: 60% or more and less than 75%)”. Besides, the PDE4 inhibitory activity entry with PDE4 is on record as “particularly excellent”.
For `COC(C)(c1ccc(-c2nccs2)c2oc(N3CC4CC(C3)N4)nc12)C(F)(F)F` (centres unmarked) [Example 235, 2-(3,6-Diazabicyclo[3.1.1]heptan-3-yl)-7-(thiazol-2-yl)-4-(1,1,1-trifluoro-2-methoxypropan-2-yl)benzo[d]oxazole], in data set [1], the “Mouse Chronic Dermatitis Model” value is listed as “A (A: 70% or more)”. The IC50 is ≤ 1 nM in the data set with PDE4 (setting [3]) and < 100 nM in the data set on PDE4 (setting [5]). Further, the PDE4 inhibitory activity entry with PDE4 is “particularly excellent”.
As to `COC(c1cc(-c2nccs2)c2oc(N3CC4CC(C3)N4)nc2c1OC(F)(F)F)C(F)F` (centres unmarked) [Example 208, 2-(3,6-Diazabicyclo[3.1.1]heptan-3-yl)-5-(2,2-difluoro-1-methoxyethyl)-7-(thiazol-2-yl)-4-(trifluoromethoxy)benzo[d]oxazole], the “Mouse Chronic Dermatitis Model” value in data set [1] is “B (B: 40% or more and less than 70%)”. For the same compound, the IC50 is 1 to 11 nM in the data set with PDE4 (setting [3]) and < 100 nM with PDE4 (setting [5]). For the same compound, the PDE4 inhibitory activity result with PDE4 is “particularly excellent”.
Consider `CC(O)(c1ccc(-c2nccs2)c2oc(N3CC4CC(C3)N4)nc12)C(F)(F)F` (centres unmarked) [Example 234, 2-(2-(3,6-Diazabicyclo[3.1.1]heptan-3-yl)-7-(thiazol-2-yl)benzo[d]oxazol-4-yl)-1,1,1-trifluoropropan-2-ol], for which the “Mouse Chronic Dermatitis Model” value in data set [1] is given as “A (A: 70% or more)”. Further, the IC50 in the data set on PDE4 (setting [3]) is ≤ 1 nM; in the data set on PDE4 (setting [5]), < 100 nM. Further, in the data set with PDE4, the PDE4 inhibitory activity result is reported as “particularly excellent”.
On to `Cc1ccc(-c2nccs2)c2oc(N3CC4CCC(C3)N4)nc12` [Example 25, 2-(3,8-Diazabicyclo[3.2.1]octan-3-yl)-4-methyl-7-(thiazol-2-yl)benzo[d]oxazole], for which the IC50 in the data set on TGF-β is < 1000 nM; in the data set on PDE4 (setting [3]) it was ≤ 1 nM; in the data set with PDE4 (setting [4]) it was < 100 nM. Besides, the PDE4 inhibitory activity entry in the data set on PDE4 is on record as “particularly excellent”.
